Reference: the supplement of paper PMC10307832

Experiments:
Assay in all cases: relative viability (nuclei count vs DMSO), 5 days (fraction); higher = more cells survive
Sulindac + Luminespib = compound: CC1=C(CC(=O)O)c2cc(F)ccc2/C1=C\c1ccc([S+](C)[O-])cc1 [Sulindac] + CCNC(=O)c1noc(-c2cc(C(C)C)c(O)cc2O)c1-c1ccc(CN2CCOCC2)cc1 [Luminespib] (partner 0.01 µM)
Method in brief: (§1)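 Dosing by pin tool came one day after lung cancer cell lines were seeded in 1536-well plates, using either one drug or a fixed anchor-drug dose plus five library-drug doses (not always all listed) in √10 steps. After 5 days, nuclei were counted on 4× images. Relative viability is treated-well nuclei count divided by vehicle-well nuclei count, and values are medians of duplicate plates.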

5-Fluorouracil + OSI-027 = compound: O=c1[nH]cc(F)c(=O)[nH]1 [5-Fluorouracil] + COc1cccc2cc(-c3nc([C@H]4CC[C@H](C(=O)O)CC4)n4ncnc(N)c34)[nH]c12 [OSI-027] (partner 0.5 µM)
Method in brief: as §1

Sulindac + Pemetrexed = compound: CC1=C(CC(=O)O)c2cc(F)ccc2/C1=C\c1ccc([S+](C)[O-])cc1 [Sulindac] + Nc1nc2[nH]cc(CCc3ccc(C(=O)N[C@@H](CCC(=O)O)C(=O)O)cc3)c2c(=O)[nH]1 [Pemetrexed] (partner 0.2 µM)
Method in brief: as §1

[1] = compound: CN[C@@H]1C[C@H]2O[C@@](C)([C@@H]1OC)n1c3ccccc3c3c4c(c5c6ccccc6n2c5c31)C(=O)NC4 [Staurosporine] + COc1cc2c(Oc3ccc(NC(=O)C4(C(=O)Nc5ccc(F)cc5)CC4)cc3F)ccnc2cc1OCCCN1CCOCC1 [Foretinib] (partner 0.25 µM)
Method in brief: as §1

Cell Line	relative viability (Sulindac + Luminespib; first compound 0.08 µM)	relative viability (Sulindac + Luminespib; first compound 0.253 µM)	relative viability (Sulindac + Luminespib; first compound 0.8 µM)	relative viability (Sulindac + Luminespib; first compound 2.53 µM)	relative viability (Sulindac + Luminespib; first compound 8 µM)	relative viability (5-Fluorouracil + OSI-027; first compound 0.02 µM)	relative viability (5-Fluorouracil + OSI-027; first compound 0.2 µM)	relative viability (5-Fluorouracil + OSI-027; first compound 0.6325 µM)	relative viability (5-Fluorouracil + OSI-027; first compound 2 µM)	relative viability (Sulindac + Pemetrexed; first compound 0.08 µM)	relative viability (Sulindac + Pemetrexed; first compound 0.253 µM)	relative viability (Sulindac + Pemetrexed; first compound 0.8 µM)	relative viability (Sulindac + Pemetrexed; first compound 2.53 µM)	relative viability (Sulindac + Pemetrexed; first compound 8 µM)	relative viability ([1]; first compound 0.005 µM)	relative viability ([1]; first compound 0.05 µM)	relative viability ([1]; first compound 0.1581 µM)	relative viability ([1]; first compound 0.5 µM)	relative viability ([1]; first compound 0.01581 µM)
NCI-H2170	0.782	0.755	0.941	0.671	0.627	0.681	0.594	0.459	0.37	0.282	0.252	0.371	0.267	0.278	1.04	0.866	0.382	0.307	
HCC-366						1.18	0.868	0.439	0.144	0.205	0.183		0.14	0.172	1.07	0.799	0.105	0.303	
NCI-H2405	0.455	0.647	0.686	0.752	0.754	0.633	0.661	0.701	0.604	1.14	1.17	0.971	0.926	1.15	0.675		0.105	0.0788	0.302
COR-L 105	0.677	0.66	0.724	0.793	0.792	0.649	0.899	0.66	0.443	1.31	1.14	0.979	1.21	1.2	0.439	0.322	0.341	0.231	0.389
201T	1.13	1.09	1.07	1.04	1.09	0.964	0.274	0.161	0.128	0.329	0.325	0.339	0.323	0.366	0.881	0.518	0.314	0.159	0.896
NCI-H2228	0.115	0.129	0.131	0.185	0.163	0.404	0.55	0.332	0.329	0.376	0.445	0.289	0.371	0.319	0.889	0.317	0.11	0.0985	0.537
LC-2-ad	1.03	0.947	1.07	0.994	1.18	0.91	0.582	0.404	0.322	0.29	0.27	0.273	0.263	0.254	0.845	0.236	0.175	0.169	0.537
NCI-H2087	0.196	0.164		0.148	0.167	0.555	0.563	0.464	0.346	0.748	0.666	0.741	0.658	0.685	0.863	0.252	0.112	0.0962	0.561
NCI-H358	0.202	0.384		0.46	0.359	0.819	0.888	0.508	0.289	0.183	0.157	0.17	0.151	0.182	0.835	0.11	0.0647	0.0577	0.241
H3255	0.85	0.958	0.847	0.954	1.05	0.609	0.686	0.699	0.574	0.592	0.573	0.549	0.567	0.568	0.884	0.292	0.211	0.183	0.357
NCI-H23	0.174			0.234	0.243	0.618	0.56	0.388	0.252	0.768	0.683	0.237	0.7	0.692	0.898	0.43	0.258	0.387	
CAL-12T	0.556	0.3	0.311	0.485	0.524	0.771	0.625	0.385	0.352	1.18	1.1	1.24	1.14	1.44	0.523	0.186	0.168	0.121	0.319
A-427	1.05	0.835	1.06	0.781	1.07	0.461	0.557	0.359	0.259	1.01	1	0.816	0.956	1.1	1.06	0.282	0.198	0.121	0.78
HARA	0.731	1	0.77	0.671	0.963	0.475	0.737	0.559	0.308	0.237	0.257	0.242	0.239	0.288	0.77	0.327	0.184	0.258	
NCI-H1793	0.188	0.168	0.163	0.169	0.265	0.283	0.369	0.303	0.207	0.957	0.824		1.13	1.14	0.784	0.474	0.217	0.353	
NCI-H1623	0.424	0.459	0.51	0.462	0.507	0.384	0.339	0.339	0.323						0.967	0.925	0.731	0.341	0.643
NCI-H2023	0.923	0.845		0.649	0.92	0.369	0.176	0.103	0.0879	0.267	0.226	0.186	0.196	0.244	0.526	0.174	0.107	0.0611	
ABC-1	0.397	0.415	0.687		0.71	0.453	0.518	0.53	0.261						0.394	0.249	0.269	0.151	0.367
IA-LM															0.423	0.139	0.1	0.0733	0.109
NCI-H441	0.345	0.326	0.352	0.239	0.289	0.779	0.523	0.322	0.326	0.251	0.255	0.286	0.244	0.253	0.822	0.354	0.215	0.194	0.503
NCI-H1915	1.07	0.883		0.909	0.813	0.561	0.616	0.591	0.525	0.602	0.53	0.492	0.475	0.53		0.552	0.283	0.278	0.542

Cell Line	relative viability (Sulindac + Luminespib; first compound 0.08 µM)	relative viability (Sulindac + Luminespib; first compound 0.253 µM)	relative viability (Sulindac + Luminespib; first compound 0.8 µM)	relative viability (Sulindac + Luminespib; first compound 2.53 µM)	relative viability (Sulindac + Luminespib; first compound 8 µM)	relative viability (5-Fluorouracil + OSI-027; first compound 0.02 µM)	relative viability (5-Fluorouracil + OSI-027; first compound 0.2 µM)	relative viability (5-Fluorouracil + OSI-027; first compound 0.6325 µM)	relative viability (5-Fluorouracil + OSI-027; first compound 2 µM)	relative viability (Sulindac + Pemetrexed; first compound 0.08 µM)	relative viability (Sulindac + Pemetrexed; first compound 0.253 µM)	relative viability (Sulindac + Pemetrexed; first compound 0.8 µM)	relative viability (Sulindac + Pemetrexed; first compound 2.53 µM)	relative viability (Sulindac + Pemetrexed; first compound 8 µM)	relative viability ([1]; first compound 0.005 µM)	relative viability ([1]; first compound 0.05 µM)	relative viability ([1]; first compound 0.1581 µM)	relative viability ([1]; first compound 0.5 µM)	relative viability ([1]; first compound 0.01581 µM)
LXF-289	0.821	0.847	0.58	0.715	0.611	0.808	0.612	0.356	0.258	0.99	0.876	0.806	0.9	0.942	1.01	0.268	0.0989	0.0792	0.164
HCC-827	0.566	0.916	0.475	0.606	0.412	0.767	0.832	0.681	0.391	0.286	0.282	0.249	0.241	0.26	1.06	0.645	0.381	0.395	0.589
EMC-BAC-2	1.04	1.23	0.802	1.23	1.22	0.363	0.407	0.376	0.361	0.429	0.441	0.408	0.451	0.466	0.397	0.252	0.23	0.106	0.344
NCI-H647	0.187	0.125	0.169	0.122	0.134	0.616	0.724	0.464	0.378	0.212	0.165	0.169	0.182	0.208	0.886	0.535	0.143	0.0766	0.709
NCI-H1792	0.409	0.475		0.384	0.627	0.838	0.602	0.317	0.222	0.867	0.903		0.794	0.827					
NCI-H2009	1.15	1.01	1.05	0.986	1.15	0.618	0.674	0.478	0.379	1.07	1.02	1.03	1.01	1.25	0.527	0.212	0.177	0.127	0.389
NCI-H2347	0.302	0.478		0.411	0.519	0.939	0.322	0.298	0.329	0.429	0.394		0.461	0.414	1.04	0.374	0.289	0.422	0.588
NCI-H522	1.15	1.01	1.09	1.2	1.22	0.714	0.714	0.722	0.705	0.859	0.985	1.05	0.88	0.96					
NCI-H1437	1.33	1.1	0.912	1.25	1.25	0.495	0.23	0.205	0.188	0.375	0.321	0.326	0.315	0.413	1.13	0.854	0.58	0.169	
SK-MES-1	0.875	0.985	0.78	0.735	0.935	0.577	0.367	0.253	0.196	1.12	0.99	1.03	1.03	1.06	0.626	0.293	0.333	0.142	0.581
NCI-H3122	0.136	0.0774	0.0891	0.0935	0.105	1.04	0.871	0.349		0.203	0.194	0.207	0.176	0.214	1.03	0.76	0.695	0.371	
NCI-H1299															0.893	0.231	0.121	0.132	0.352
Calu-6															0.75	0.254	0.0642	0.0391	0.456
NCI-H727	0.223	0.338		0.299	0.443	0.639	0.651	0.647	0.574						0.652	0.428	0.37	0.29	0.542
EBC-1															0.107	0.103	0.0621	0.0633	0.102
NCI-H1648						0.246	0.269	0.264	0.245	0.889	0.781		0.569	0.787					
NCI-H1703															0.303	0.196	0.2	0.156	0.246
HCC-44	0.969	1.08		1.05	1.25	0.664	0.479	0.483	0.31	0.663	0.695	0.667	0.632	0.646					
A549															0.675	0.297	0.0276	0.0246	0.268
HCC-78						0.618	0.369	0.335	0.306	0.923	0.878	0.751	0.924	0.953	0.537	0.429	0.486		0.459
